Patent US20240374681A1, “Formulation for Co-Administration of Q-GRFT and Tenofovir” (priority 2021, published 2024)

Experiments:
[1] = Q-GRFT content determination by HPLC (incl. stability study); assay type: physicochemical; conditions: molar ratios 3, 6, 12 to Q-GRFT monomer, 40° C./75% RH for 3 months
Experimental: Stability Study Procedure: Individual enema bottles containing 125 ml of solution were stored under three conditions (4° C.; 25° C./60% RH; 40° C./75% RH) and monitored over time (24 months for 4° C. and 25° C./60% RH; 6 months for 40°° C./75% RH). At each time point (1, 2, 3, 6, 9, 12, 18, and 24 months), physicochemical characteristics were evaluated and compared against the critical quality assessments (CQAs) according to the following procedures.
(§1) Q-GRFT Content Determination by High-Performance Liquid Chromatography: The High-Performance Liquid Chromatography (HPLC) method for measuring Q-GRFT content was previously developed and reported elsewhere. The samples were diluted 2 times with Milli-Q water. The Q-GRFT content was detected by an HPLC system (Waters Corporation, Milford, MA) equipped with an auto-injector (model 717), a quaternary pump (model 600), and a photodiode array detector (model 2996)) with a C5 column (Jupiter 5 μm 300 Å, 250×4.6 mm) and a C5 pre-column (Security Guard Standard Widepore).
Lyophilization: For samples with cryoprotectants, sugar/sugar polyol powders were weighed and added in individual scintillation vials. The Q-GRFT stock solution was then added. The sample vials were mixed until the powder dissolved. Next, the vials containing sample solution (with or without the addition of cryoprotectants) were transferred to a −80° C. freezer to freeze overnight. Until lyophilization, the samples were tilted and placed in the beaker, attached to a pre-set lyophilizer (Labconco FreeZone Freeze Dry System, Kansas City, MO). The lyophilizing process was set to maintain the environment at −50° C. and 0.070 mBar. Sample vials were measured for their weights after lyophilizing for at least two days. Once the weights were stable, indicating no more water was removed, the lyophilized powder was taken out of the vials and ground with a mortar and pestle. The lyophilized powder would be packed in a tube at 4° C. (unless other conditions were indicated) until further characterizations.
as §1, with “Chromatography (HPLC):” for “Chromatography:”, “HPLC” for “High-Performance Liquid Chromatography (HPLC)”, “measuring the” for “measuring”, “was” for “was previously”, “developed in-house” for “developed”, “previously.” for “elsewhere.”

[2] = test system: Caco-2 monolayer cell model; assay: Caco-2 monolayer permeability of paracellular marker [^14C]-Mannitol
Text: Caco-2 Monolayer Cell Model Permeability Study Procedure: The procedure was adapted from a previously reported method to build a Caco-2 monolayer cell model and perform the permeability studies. Cell passages 34 to 42 were used to build the model in different batches. For preparation, a total of 3×10^5 Caco-2 cells were dispensed on the apical side of each Transwell filter. The model would be ready after 21-29 days of culture. The model was validated with a paracellular marker, [^14C]-Mannitol. […] To study the permeability, the sample solution was gently dispensed on the apical side of the model and cultured at 37° C. for 2 hours. […] The apparent permeability coefficients (Papp) were calculated using Equation 1, below.
[formula] [formula] • Papp (cm/sec): the apparent permeability coefficient;
(ng/sec): the rate of drug transportation; A (cm^2): the surface area of the cell layers; C0 (ng/ml): The initial drug concentration in the donor side.

[3] = test system: Caco-2 monolayer cell model; conditions: reported literature value; cited from earlier work
[4] = test system: Caco-2 monolayer cell model; conditions: 2-hour treatment, threshold 165 Ω*cm^2
Experimental: Caco-2 Monolayer Cell Model Toxicity Study Procedure: Passages 33 to 43 of the Caco-2 cell line were used in the studies. The Caco-2 cells were cultured in complete Dulbecco's modified Eagle's medium (DMEM) [500 ml of DMEM (Corning) containing 50 ml fetal bovine serum (FBS; Gibco Qualified One-Shot, Thermo Scientific) and 5 ml PEST (penicillin 10,000 U/ml-streptomycin, 10,000 ug/ml-glutamine 29.2 mg/ml solution (100×); Gibco, Fisher Scientific)] at 37° C. with 5% CO2 incubation. […] After overnight incubation, the samples were added to the wells and treated for 24 hours. […] A toxicity study utilizing the Caco-2 model was performed prior to permeability studies to examine the safety of the complete liquid formulations. Samples were applied on the apical side of the Transwell. After 2-hour treatments, the treated samples were discarded and washed off twice with HBSS. […] TEER values were also measured before and after the treatments as supplemental criteria for the toxicity study.

[5] = pH measurement of enema formulations / reconstituted solutions (pH meter); assay type: physicochemical; conditions: stock solution in 1× PBS
Text: To investigate if the vehicle strength impacts the pH and osmolality of formulations, PBS-base was used directly (1× PBS) or diluted (50% PBS) with or without the addition of TFV and Q-GRFT. To study if the vehicle composition impacts the pH and osmolality of formulations, PBS-base and saline-base were used directly (1× PBS; 1× saline) with the addition of TFV and Q-GRFT. Three formulations (50% PBS, 1× PBS, 1× saline; all with the addition of TFV and Q-GRFT) were chosen to further evaluate the effects of pH adjusting agents on osmolality. For the final screening, both vehicles (PBS-base and saline-base) were diluted into three strengths, 30%, 35%, and 40% with the addition of TFV and Q-GRFT. pH and osmolality were measured as in-line checkpoints for screening and quality assurance.
Manufacturing Procedure: Stock buffer (10× PBS or Saline) was diluted with Milli-Q water to a solution with lower osmolality than desired (˜40 mOsm/kg lower). […] Finally, Q-GRFT stock solution (in 1× PBS) was measured and added to the solution to make the final product. […]
pH: The pH was determined using a pH meter (XL150 pH Benchtop Meters, Fisher Scientific). […]
pH: The pH was determined by a pH meter (XL150 pH Benchtop Meters, Thermo Fisher Scientific; Waltham, MA). […] The pH was recorded only after the value stayed stable.

[6] = test system: human colon tissue; assay: Ex vivo human colon tissue permeability of Q-GRFT in Ussing chamber; conditions: all time points, LLOQ of the HPLC method
Experimental: Permeability and Toxicity Assessment with the Ex Vivo Human Colon Tissue: Tissue specimens were collected from patients 18-75 years old. A section of each tissue was retained for histological evaluation with hematoxylin and eosin (H&E) staining assay. After removal of the excess stromal tissue, the epithelial tissue was placed between the donor and receptor compartments of the Ussing chamber apparatus with the epithelial side toward the donor compartment. This set-up was maintained at 37° C. throughout the experiment. Both donor and receptor compartments were filled with KRBG during system calibration. Then the KRBG buffer from the donor sides was replaced with sample solutions. 50 μL was removed from the donor compartment at the beginning and the end of the experiments. At predetermined time points (Time 0, 15, 30, 45, 60, 75, 90, 120 minutes), 200 μL was removed from the receptor chamber and the same volume of fresh KRBG was added for replacement. These samples were held at 4° C. until analyzed by UPLC (for TFV) or HPLC (for Q-GRFT). The Papp values were calculated using Equation 1 as described above. All tissues, including pre-treatment and post-treatment tissues from all groups, were processed for paraffin sectioning. The tissue sections were embedded into paraffin blocks using the Leica EG 1160 embedding station. […]

[7] = target: HIV-1 gp120CM; assay: gp120 binding bioactivity by ELISA
Experimental: Bioactivity Determination using Enzyme-linked Immunosorbent Assay (ELISA): An ELISA was applied to evaluate the gp120 binding activity of select Q-GRFT samples. Nunc MaxiSorp 96-well plates were used for this experiment. The MaxiSorp surface is a hydrophilic/hydrophobic mix that binds to a wide range of biomolecules. In short, gp120 was bound to the wells of a 96-well plate overnight at 4° C. The HIV-1 gp120CM was purchased from Kentucky Bioprocessing (KBP; Part #C-1312). After overnight incubation, the solution of gp120 was removed, and a blocking solution (1× PBS-T [PBS with 0.05% Tween 20]) was applied for two hours at room temperature. After that, the wells were washed and incubated with various dilutions of Q-GRFT samples for one hour. Gp120 binding was detected by applying goat anti-Q-GRFT primary antibody (one-hour incubation) and HRP-labeled rabbit anti-goat secondary antibody (one-hour incubation), sequentially. […] Gp120 binding was measured at 450 nm.
Bioactivity Determination by Enzyme-linked Immunosorbent Assay (ELISA): An ELISA was adapted and applied to evaluate the gp120 binding activity of the Q-GRFT samples. […] Gp120 binding was detected by applying goat anti-Q-GRFT primary antibody (one-hour incubation) and HRP-labeled rabbit anti-goat secondary antibody (one-hour incubation), sequentially. […] Gp120 binding was measured at 450 nm with a plate reader.

Compound: OC[C@H]1O[C@@](CO)(O[C@H]2O[C@H](CO)[C@@H](O)[C@H](O)[C@H]2O)[C@@H](O)[C@@H]1O [sucrose]
- Cryoprotecting effect on Q-GRFT content of lyophilized powder [1]: concentration-dependent protection

Compound: OCC(O)C(O)C(O)C(O)[14CH2]O (stereo not drawn) [[^14C]-Mannitol]
- Papp of [^14C]-Mannitol (model validation) ([2]; tested using this Caco-2 monolayer cell model): 0.33 ×10⁻⁶ cm/s
- Papp of [^14C]-Mannitol, reported value [3]: 0.12 ×10⁻⁶ cm/s

Compound: CCCCCCCCCCCCOS(=O)(=O)[O-].[Na+] [20% SDS (positive control)]
- Paracellular marker [^14C]-Mannitol: Papp ([2]; Caco-2): 30 ± 1 ×10⁻⁶ cm/s

Compound: C=O [formaldehyde]
- TEER value after treatment [4]: < 165 Ω*cm^2

Compound: OC[C@@H](O)[C@@H](O[C@@H]1O[C@H](CO)[C@H](O)[C@H](O)[C@H]1O)[C@H](O)[C@@H](O)CO [lactitol]
- Cryoprotecting effect on Q-GRFT content of lyophilized powder [1]: no protection

Compound: Q-GRFT: engineered form of griffithsin with increased stability against oxidation; stock solution in 1× PBS
- pH of Q-GRFT stock solution [5]: around 7.39
- Q-GRFT content from the receptor sides [6]: < 1 µg/mL
- EC50 gp120 binding (ELISA) ([7]; after lyophilization and reconstitution, Example 2 (FIG. 18)): 7.02 ng/mL
- EC50 gp120 binding (ELISA) ([7]; reference solution, Example 1 (FIG. 11)): 11.70 ng/mL

Compound: OC[C@@H](O)[C@@H](O[C@H]1O[C@H](CO)[C@@H](O)[C@H](O)[C@H]1O)[C@H](O)[C@@H](O)CO [maltitol]
- Cryoprotecting effect on Q-GRFT content of lyophilized powder [1]: concentration-dependent protection

Compound: OC[C@H]1O[C@H](O[C@H]2O[C@H](CO)[C@@H](O)[C@H](O)[C@H]2O)[C@H](O)[C@@H](O)[C@@H]1O [trehalose]
- Cryoprotecting effect on Q-GRFT content of lyophilized powder [1]: concentration-independent protection
